# Reference: US8574563B2 (Bristol-Myers Squibb Company, priority 2006, dated 2013)
# pEC50: −log10 of the molar value.
# System: HCV 1b-377-neo replicon cells
# Assay: HCV replicon assay, HCV 1b-377-neo replicon cells (1b FRET)
# Format: cell-based, Hepatitis C virus genotype 1b
# Conditions: HCV 1b replicon, FRET; read-out: 1b Fret (EC50 μM)
# Procedure, shortened: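 Compounds tested in HCV genotype 1b-377-neo replicon cells with a FRET read-out. Cells resistant to a reference NS5A inhibitor through a Y2065H NS5A mutation were run alongside wild-type cells.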
row,SMILES,EC50 [nM]
1,"CC(C)[C@H](NS(=O)(=O)C(C)C)C(=O)N1CCC[C@H]1c1ncc(-c2ccc(-c3ccc(-c4cnc([C@@H]5CCCN5C(=O)[C@@H](NS(=O)(=O)N(C)C)C(C)C)[nH]4)cc3)cc2)[nH]1 [Example F65, N—((S)-1-((S)-2-(5-(4′-(2-((S)-1-((S)-2-(N,N-dimethylsulfamoylamino)-3-methylbutanoyl)pyrrolidin-2-yl)-1H-imidazol-5-yl)biphenyl-4-yl)-1H-imidazol-2-yl)pyrrolidin-1-yl)-3-methyl-1-oxobutan-2-yl)propane-2-sulfonamide]",210

# Same assay, conditions: HCV 1b-377-neo replicon cells; HCV 1b genotype; read-out: EC50 range against HCV 1b (Table 2, Range)
row,SMILES,pEC50
1,"C[C@@](O)(C(=O)N1CCC[C@H]1c1ncc(-c2ccc(-c3ccc(-c4cnc([C@@H]5CCCN5C(=O)[C@@](C)(O)c5ccccc5)[nH]4)cc3)cc2)[nH]1)c1ccccc1 [Example 3, (2S,2′S)-1,1′-(4,4′-biphenyldiylbis(1H-imidazole-5,2-diyl(2)-2,1-pyrrolidinediyl))bis(1-oxo-2-phenyl-2-propanol)]",9.00 to 12.00
2,"COC(=O)N[C@@H](C(=O)N1CCC[C@H]1c1ncc(-c2ccc(-c3ccc(-c4cnc([C@@H]5CCCN5C(=O)Cc5ccccn5)[nH]4)cc3)cc2)[nH]1)c1ccccc1 [Example 46, methyl ((1R)-2-oxo-1-phenyl-2-((2S)-2-(5-(4′-(2-((2S)-1-(2-pyridinylacetyl)-2-pyrrolidinyl)-1H-imidazol-5-yl)-4-biphenylyl)-1H-imidazol-2-yl)-1-pyrrolidinyl)ethyl)carbamate]",9.00 to 12.00
3,"CC(C)[C@H](NS(=O)(=O)C(C)C)C(=O)N1CCC[C@H]1c1ncc(-c2ccc(-c3ccc(-c4cnc([C@@H]5CCCN5C(=O)[C@@H](NS(=O)(=O)N(C)C)C(C)C)[nH]4)cc3)cc2)[nH]1 [Example F65, N—((S)-1-((S)-2-(5-(4′-(2-((S)-1-((S)-2-(N,N-dimethylsulfamoylamino)-3-methylbutanoyl)pyrrolidin-2-yl)-1H-imidazol-5-yl)biphenyl-4-yl)-1H-imidazol-2-yl)pyrrolidin-1-yl)-3-methyl-1-oxobutan-2-yl)propane-2-sulfonamide]",6.00 to 7.00

# Same assay, conditions: Hepatitis C virus, HCV 1b-377-neo replicon cells; HCV 1b genotype; read-out: EC50 range against HCV 1b (Table 2, Range)
row,SMILES,pEC50
1,"CN(C)[C@@H](C(=O)N1CCC[C@H]1c1ncc(-c2ccc(-c3ccc(-c4cnc([C@@H]5CCCN5C(=O)Cc5cn(C)cn5)[nH]4)cc3)cc2)[nH]1)c1ccccc1 [Example 88, (1R)-N,N-dimethyl-2-((2S)-2-(5-(4′-(2-((2S)-1-((1-methyl-1H-imidazol-4-yl)acetyl)-2-pyrrolidinyl)-1H-imidazol-5-yl)-4-biphenylyl)-1H-imidazol-2-yl)-1-pyrrolidinyl)-2-oxo-1-phenylethanamine]",9.00 to 12.00
2,COC(=O)N[C@@H](C(=O)N1CCC[C@H]1c1ncc(-c2ccc(-c3ccc(-c4cnc([C@@H]5CCCN5C(=O)[C@H](NC(=O)OC)c5ccccc5)[nH]4)nn3)cc2)[nH]1)c1ccccc1 [Example 152j-10],7.00 to 9.00
3,"COC[C@H](NC(=O)OC)C(=O)N1CCC[C@H]1c1ncc(-c2ccc(-c3ccc(-c4cnc([C@@H]5CCCN5C(=O)[C@H](COC)NC(=O)OC)[nH]4)cc3)cc2)[nH]1 [Example M26, methyl ((1S)-2-((2S)-2-(5-(4′-(2-((2S)-1-(N-(methoxycarbonyl)-O-methyl-L-seryl)-2-pyrrolidinyl)-1H-imidazol-5-yl)-4-biphenylyl)-1H-imidazol-2-yl)-1-pyrrolidinyl)-1-(methoxymethyl)-2-oxoethyl)carbamate]",6.00 to 7.00
4,"CCN(CC)[C@@H](C(=O)N1CCC[C@H]1c1ncc(-c2ccc(-c3ccc(-c4cnc([C@@H]5CCCN5C(=O)C[C@H](Cc5ccccc5)NC(=O)OC)[nH]4)cc3)cc2)[nH]1)c1ccccc1 [cj-53, methyl ((1S)-1-benzyl-3-((2S)-2-(5-(4′-(2-((2S)-1-((2R)-2-(diethylamino)-2-phenylacetyl)-2-pyrrolidinyl)-1H-imidazol-5-yl)-4-biphenylyl)-1H-imidazol-2-yl)-1-pyrrolidinyl)-3-oxopropyl)carbamate]",9.00 to 12.00
5,"CCC(CC)[C@H](NC(=O)OC)C(=O)N1CCC[C@H]1c1ncc(-c2ccc(-c3ccc(-c4cnc([C@@H]5CCCN5C(=O)[C@@H](NC(=O)OC)C(CC)CC)[nH]4)cc3)cc2)[nH]1 [OL-4, methyl ((1S)-2-ethyl-1-(((2S)-2-(4-(4′-(2-((2S)-1-((2S)-3-ethyl-2-((methoxycarbonyl)amino)pentanoyl)-2-pyrrolidinyl)-1H-imidazol-4-yl)-4-biphenylyl)-1H-imidazol-2-yl)-1-pyrrolidinyl)carbonyl)butyl)carbamate]",9.00 to 12.00
6,"CC(=O)N[C@@H](C(=O)N1[C@@H]2C[C@@H]2C[C@H]1c1nc(-c2ccc(-c3ccc(-c4c[nH]c([C@@H]5C[C@H]6C[C@H]6N5C(=O)[C@H](NC(C)=O)C(C)C)n4)cc3)cc2)c[nH]1)C(C)C [Example M143, N-((1R)-1-(((1R,3S,5R)-3-(4-(4′-(2-((1R,3S,5R)-2-((2R)-2-acetamido-3-methylbutanoyl)-2-azabicyclo[3.1.0]hex-3-yl)-1H-imidazol-4-yl)-4-biphenylyl)-1H-imidazol-2-yl)-2-azabicyclo[3.1.0]hex-2-yl)carbonyl)-2-methylpropyl)acetamide]",7.00 to 9.00
7,"CN(C)[C@H](C(=O)N1CCC[C@H]1c1ncc(-c2ccc(-c3ccc(-c4cnc([C@@H]5CCCN5C(=O)[C@H](c5ccccc5)N(C)C)[nH]4)cc3)cc2)[nH]1)c1ccccc1 [Example 5, (1S,1′S)-2,2′-(4,4′-biphenyldiylbis(1H-imidazole-5,2-diyl(2S)-2,1-pyrrolidinediyl))bis(N,N-dimethyl-2-oxo-1-phenylethanamine)]",7.00 to 9.00
8,"CCN(CC)[C@@H](C(=O)N1CC(F)(F)C[C@H]1c1nc(-c2ccc(-c3ccc(-c4cnc([C@@H]5CCCN5C(=O)[C@@H](c5ccccc5)N(CC)CC)[nH]4)c(F)c3)cc2)c[nH]1)c1ccccc1 [Example J14e.1, (1R)-2-((2S)-2-(4-(4′-(2-((2S)-1-((2R)-2-(diethylamino)-2-phenylacetyl)-4,4-difluoro-2-pyrrolidinyl)-1H-imidazol-4-yl)-3-fluoro-4-biphenylyl)-1H-imidazol-2-yl)-1-pyrrolidinyl)-N,N-diethyl-2-oxo-1-phenylethanamine]",9.00 to 12.00
9,"O=C([C@H]1CCN(Cc2ccccc2)C1)N1CCC[C@H]1c1ncc(-c2ccc(-c3ccc(-c4cnc([C@@H]5CCCN5C(=O)[C@@H](c5ccccc5)N5CCCCC5)[nH]4)cc3)cc2)[nH]1 [Example 107-18, 1-((1R)-2-((2S)-2-(5-(4′-(2-((2S)-1-(((3S)-1-benzyl-3-pyrrolidinyl)carbonyl)-2-pyrrolidinyl)-1H-imidazol-5-yl)-4-biphenylyl)-1H-imidazol-2-yl)-1-pyrrolidinyl)-2-oxo-1-phenylethyl) piperidine]",9.00 to 12.00
10,"CN(C)[C@@H](C(=O)N1CCC[C@H]1c1ncc(-c2ccc(-c3ccc(-c4cnc([C@@H]5CCCN5C(=O)[C@@H](c5ccccc5)N5CCCCC5)[nH]4)cc3)cc2)[nH]1)c1ccccc1F [Example 28-5, (1R)-1-(2-fluorophenyl)-N,N-dimethyl-2-oxo-2-((2S)-2-(5-(4′-(2-((2S)-1-((2R)-2-phenyl-2-(1-piperidinyl)acetyl)-2-pyrrolidinyl)-1H-imidazol-5-yl)-4-biphenylyl)-1H-imidazol-2-yl)-1-pyrrolidinyl)ethanamine]",9.00 to 12.00
11,"COC(=O)N[C@@H](C(=O)N1CCC[C@H]1c1ncc(-c2ccc(-c3ccc(-c4cnc([C@@H]5CCCN5C(=O)[C@@H](c5ccccc5)N5CCC(C)(O)CC5)[nH]4)cc3)cc2)[nH]1)c1ccccc1Cl [Example 107-42, methyl ((1R)-1-(2-chlorophenyl)-2-((2S)-2-(5-(4′-(2-((2S)-1-((2R)-2-(4-hydroxy-4-methyl-1-piperidinyl)-2-phenylacetyl)-2-pyrrolidinyl)-1H-imidazol-5-yl)-4-biphenylyl)-1H-imidazol-2-yl)-1-pyrrolidinyl)-2-oxoethyl) carbamate]",9.00 to 12.00
